Measured values taken from publication PMC9386018, “A lymphatic-absorbed multi-targeted kinase inhibitor for myelofibrosis therapy” (Nature Communications, 2022).
Several values for one entry are separate records, joined by “and”; a condition that tells them apart may be missing. Equal entries are not always repeated.

Legend:
[1] = molecular target: Target kinase isoforms (PI3K, mTOR, RAF, MEK) (Homo sapiens, UniProt P04049); test: Target kinase isoforms 10-point IC50 determination (Supplementary Fig. 7); type: biochemical; conditions: CRAF
Method in brief: (§1)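 Kinase activity across a 10-point dose series was corrected and normalized to vehicle-treated controls. IC50 values were derived by non-linear regression of percent activity. Kinome-wide percent inhibition was averaged over replicates.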

[2] = molecular target: Target kinase isoforms (PI3K, mTOR, RAF, MEK) (Homo sapiens, UniProt P15056); test: as above; type: biochemical; conditions: BRAF
Method in brief: as §1

[3] = molecular target: Target kinase isoforms (PI3K, mTOR, RAF, MEK) (Homo sapiens, UniProt P36507); test: as above; type: biochemical; conditions: MEK2, replicates
Method in brief: as §1

[4] = test system: phosphorylated AKT (pAKT; pS473) in SET-2 cells; test: Phospho-flow cytometry of pAKT in SET-2 cells; type: cell-based, human; conditions: 5 μM, 16 h
Description: (§2) The human megakaryoblastic cell line, SET-2 (ATCC), was maintained in RPMI 1640 supplemented with 20% FBS and incubated for 16 h at 10^6 cells mL^−1 with LP-182 or vehicle (DMSO; dimethyl sulfoxide), then washed in ice-cold PBS, and collected for flow cytometry analysis. Single-cell suspensions of mouse spleen were prepared from MPL^W515L MF mice (below) in RPMI 1640 supplemented with 5% FCS. Red blood cells were lysed by ammonium chloride-mediated red cell lysis (RCL) buffer and passed through a nylon mesh, and then cells were counted. For intracellular phospho-protein staining, SET-2 or spleen cells were fixed and then permeabilized using BD Phospho-flow fixation buffer and Perm-Buffer III (BD biosciences) according to the manufacturer’s protocol. Intracellular phospho-protein staining was performed using fluorochrome-conjugated antibodies, pAKT (pS473)-Alexa Fluor 647 (MB89-61) or pERK1/2 (pT202/pY204)-Alexa Fluor 647 (20 A). All phospho-flow antibodies were purchased from BD Biosciences. […] Flow cytometry was performed on a FACS Fortessa (Becton, Dickinson and Co.) using FACSDiVa software, and data analyzed using FlowJo software (Tree Star). […]

[5] = test system: phosphorylated ERK1/2 (pT202/pY204) in SET-2 cells; test: Phospho-flow cytometry of pERK1/2 in SET-2 cells; type: cell-based, human; conditions: 5 μM, 16 h
Description: as §2

[6] = Pathological and histological toxicity screening in healthy mice; type: in vivo, mouse; design: Hematology Analysis WBC: unit not given here; conditions: for Body weight: Supplementary Figure 8a
Description: Female CD-1 mice were dosed orally with vehicle (Maisine CC; n = 5) or LP-182 at 400 mg kg^−1 (n = 4) daily for 10 d, followed by an 8 d rest period, then underwent necropsy for hematological, histological, and pathological evaluation by the University of Michigan Unit for Laboratory Animal Medicine In Vivo Animal Core. Untreated animals (n = 3) were also monitored during the study for non-compound related adverse findings (ie. gavage stress impacting weight gain, vehicle-related toxicity), however no findings were observed, thus main comparisons were made between vehicle and compound treated mice. […] Briefly, mice were euthanized by CO2 inhalation, then blood was collected by cardiac puncture and transferred into EDTA anticoagulant-containing tubes, followed by gross necropsy, then tissue harvest and fixation in 10% neutral buffered formalin at a 10:1 (v/v) ratio of fixative to tissue. Differential blood counts were generated from whole blood using a Hemavet 950 automated hematology analyzer (Drew Scientific), and tissues were processed for paraffin embedding using routine histological methods, then sectioned at 4 µm by rotary microtome and mounted on glass slides for hematoxylin and eosin (H&E) staining and evaluation by light microscopy at magnifications ranging from 10–40x. Data was generated from n ≥ 3 individual animals per grouping. Two animals in the vehicle treated group were excluded from blood count analysis due to insufficient sample collection and sample clotting, respectively.

[7] = concentration 0.495 nM, 0.000495 µM
[8] = concentration 1.52 nM, 0.00152 µM
[9] = concentration 4.57 nM, 0.00457 µM
[10] = concentration 41.2 nM, 0.0412 µM
[11] = healthy mice, oral 400 mg kg^−1 for 10 d, 8 d rest
[12] = individual animals, Supplementary Figure 8c
[13] = individual animals, Supplementary Figure 8c, in 10^3/µL (unit assumed)
[14] = individual animals, Supplementary Figure 8c, in % (unit assumed)
[15] = individual animals, Supplementary Figure 8c, in fL (unit assumed)
[16] = individual animals, Supplementary Figure 8c, in g/dL (unit assumed)

Sequence of Target kinase isoforms (PI3K, mTOR, RAF, MEK) (Homo sapiens, UniProt P15056) (P15056 whole entry, canonical isoform): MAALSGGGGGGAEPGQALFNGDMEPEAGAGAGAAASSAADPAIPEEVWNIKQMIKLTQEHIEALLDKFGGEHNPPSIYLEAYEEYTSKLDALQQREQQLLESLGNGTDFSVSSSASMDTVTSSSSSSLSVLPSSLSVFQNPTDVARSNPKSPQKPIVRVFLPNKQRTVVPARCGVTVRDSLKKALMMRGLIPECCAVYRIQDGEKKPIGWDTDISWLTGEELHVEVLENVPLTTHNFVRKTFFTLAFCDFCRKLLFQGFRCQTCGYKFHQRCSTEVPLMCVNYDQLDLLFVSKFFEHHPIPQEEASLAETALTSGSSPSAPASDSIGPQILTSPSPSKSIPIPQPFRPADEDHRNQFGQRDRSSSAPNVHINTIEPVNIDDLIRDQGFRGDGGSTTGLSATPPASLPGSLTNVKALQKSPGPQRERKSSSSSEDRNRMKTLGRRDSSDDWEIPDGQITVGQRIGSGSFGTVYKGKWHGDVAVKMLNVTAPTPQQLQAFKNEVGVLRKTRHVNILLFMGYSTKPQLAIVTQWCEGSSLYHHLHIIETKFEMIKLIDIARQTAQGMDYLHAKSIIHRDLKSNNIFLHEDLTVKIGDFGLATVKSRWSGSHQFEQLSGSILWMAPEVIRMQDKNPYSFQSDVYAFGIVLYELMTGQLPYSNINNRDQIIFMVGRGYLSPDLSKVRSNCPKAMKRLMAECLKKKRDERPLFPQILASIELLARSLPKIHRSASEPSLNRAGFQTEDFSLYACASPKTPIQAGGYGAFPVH
Sequence of Target kinase isoforms (PI3K, mTOR, RAF, MEK) (Homo sapiens, UniProt P36507) (P36507 whole entry, canonical isoform): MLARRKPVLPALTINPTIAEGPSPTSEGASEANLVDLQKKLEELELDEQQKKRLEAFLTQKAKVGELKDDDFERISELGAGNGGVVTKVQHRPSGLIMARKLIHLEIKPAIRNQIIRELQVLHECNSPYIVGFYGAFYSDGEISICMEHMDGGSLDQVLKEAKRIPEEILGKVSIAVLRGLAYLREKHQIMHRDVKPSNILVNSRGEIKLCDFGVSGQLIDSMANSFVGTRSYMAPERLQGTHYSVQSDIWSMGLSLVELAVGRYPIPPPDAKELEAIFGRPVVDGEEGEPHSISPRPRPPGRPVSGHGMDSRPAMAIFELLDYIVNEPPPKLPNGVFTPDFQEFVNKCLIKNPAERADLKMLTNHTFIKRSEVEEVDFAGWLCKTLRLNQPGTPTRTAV
Sequence of Target kinase isoforms (PI3K, mTOR, RAF, MEK) (Homo sapiens, UniProt P04049) (P04049 whole entry, canonical isoform): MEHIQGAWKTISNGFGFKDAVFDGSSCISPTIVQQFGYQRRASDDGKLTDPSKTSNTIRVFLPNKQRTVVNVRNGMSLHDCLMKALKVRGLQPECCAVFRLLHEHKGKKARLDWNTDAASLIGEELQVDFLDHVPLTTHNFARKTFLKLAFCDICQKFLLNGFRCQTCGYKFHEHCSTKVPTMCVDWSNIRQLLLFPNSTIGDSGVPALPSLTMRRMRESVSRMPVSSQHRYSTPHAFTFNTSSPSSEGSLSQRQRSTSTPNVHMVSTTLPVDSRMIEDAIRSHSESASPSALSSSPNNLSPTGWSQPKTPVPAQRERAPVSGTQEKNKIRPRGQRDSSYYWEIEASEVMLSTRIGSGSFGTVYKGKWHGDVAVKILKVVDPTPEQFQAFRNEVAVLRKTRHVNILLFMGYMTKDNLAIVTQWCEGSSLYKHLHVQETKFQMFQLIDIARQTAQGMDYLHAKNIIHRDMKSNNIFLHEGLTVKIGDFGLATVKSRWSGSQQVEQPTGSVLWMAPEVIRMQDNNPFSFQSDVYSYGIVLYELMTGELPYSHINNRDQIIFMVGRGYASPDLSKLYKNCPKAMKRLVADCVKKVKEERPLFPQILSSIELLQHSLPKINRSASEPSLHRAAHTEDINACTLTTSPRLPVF

SMILES: O=C(NOCCOCCOCCOCCC(=O)N1CCN(c2cnc3ccc(-c4cnc(Cl)c(NS(=O)(=O)c5ccc(F)cc5)c4)cc3n2)CC1)c1ccc(F)c(F)c1Nc1ccc(I)cc1F [LP-182, N-(2-(2-(2-(3-(4-(7-(6-chloro-5-((4-fluorophenyl)sulfonamido)pyridin-3-yl)quinoxalin-2-yl)piperazin-1-yl)-3-oxopropoxy)ethoxy)ethoxy)ethoxy)-3,4-difluoro-2-((2-fluoro-4-iodophenyl)amino)benzamide]
- activity at 0.000495 µM ([1]; concentration 0.495 nM, replicates): 97%
- Kinase Activity (%) ([1]; concentration 0.495 nM, replicates, 0.000495 µM): 102% and 93% and 92% and 98%
- activity at 0.00152 µM ([1]; concentration 1.52 nM, replicates): 100%
- Kinase Activity (%) ([1]; concentration 1.52 nM, replicates, 0.00152 µM): 93% and 94%
- activity at 0.00457 µM ([1]; concentration 4.57 nM, replicates): 96%
- Kinase Activity (%) ([1]; concentration 4.57 nM, replicates, 0.00457 µM): 94% (2×) and 89% and 91% and 93%
- Kinase Activity (%) ([1]; concentration 41.2 nM, replicates, 0.0412 µM): 56% and 79% and 66% and 72% and 70% and 71%
- activity at 0.123 µM ([1]; concentration 123 nM, replicates): 31%
- Kinase Activity (%) ([1]; concentration 123 nM, replicates, 0.123 µM): 30% and 34% (3×) and 32%
- activity at […] ([1]; concentration 370 nM, replicates): 7%
- Kinase Activity (%) ([1]; concentration 1110 nM, replicates, 1.11 µM): 1% (2×) and 3% and 0% and 2% (2×)
- Kinase Activity (%) CRAF ([1]; concentration 3330 nM, 3.33 µM): 0% and -2% and -1%
- Kinase Activity (%) CRAF ([1]; concentration 10000 nM, 10 µM): 3% and 0% and 1% and -1%
- activity at 0.000495 µM ([2]; concentration 0.495 nM): 100%
- Kinase Activity (%) BRAF [2, 7]: 102% and 96% and 94% and 93%
- activity at 0.00152 µM ([2]; concentration 1.52 nM): 101%
- Kinase Activity (%) BRAF [2, 8]: 98% and 95% and 94%
- activity at 0.00457 µM ([2]; concentration 4.57 nM): 90%
- Kinase Activity (%) BRAF [2, 9]: 94% and 95% and 98% and 89% and 93%
- Kinase Activity (%) BRAF [2, 10]: 49% and 38% and 54% and 59% and 53%
- Kinase Activity (%) BRAF ([2]; concentration 1110 nM, 1.11 µM): -5% and -3% and 2% and 4% and 5%
- Kinase Activity (%) BRAF ([2]; concentration 3330 nM, 3.33 µM): -5% and 1% and 4%
- activity at 0.000495 µM ([3]; concentration 0.495 nM): 90%
- Kinase Activity (%) [3, 7]: 96% (2×) and 93% and 95%
- activity at 0.00152 µM ([3]; concentration 1.52 nM): 89%
- Kinase Activity (%) [3, 8]: 91% and 95% and 92% and 94%
- activity at 0.00457 µM ([3]; concentration 4.57 nM): 87%
- Kinase Activity (%) [3, 9]: 96% and 91% and 88%
- activity at 0.0412 µM ([3]; concentration 41.2 nM): 68%
- Kinase Activity (%) [3, 10]: 64% and 78% (2×) and 82% and 72%
- Kinase Activity (%) ([3]; concentration 123 nM, 0.123 µM): 45% and 36% and 54% and 60% and 51% and 56%
- activity at 1.11 µM ([3]; concentration 1110 nM): 6%
- Kinase Activity (%) ([3]; concentration 1110 nM, 1.11 µM): 8% and 12% (2×) and 10%
- Kinase Activity (%) ([3]; concentration 3330 nM, 3.33 µM): 1% (3×) and 2% (2×) and 0%
- Kinase Activity (%) ([3]; concentration 10000 nM, 10 µM): 2% (2×) and 0% (2×) and -1% and 1%
- decrease of downstream activation of AKT [4]: ~ 50%
- decrease of downstream activation of ERK1/2 [5]: ~ 50%
- Relative organ/body weight, Brain ([6]; Brain, individual animals, Supplementary Figure 8b): 1.539% and 1.685% and 1.7935% and 1.6704%
- Relative organ/body weight, Left kidney ([6]; Left kidney, individual animals, Supplementary Figure 8b): 0.6549% and 0.6559% and 0.6824% and 0.6502%
- Relative organ/body weight, Liver ([6]; Liver, individual animals, Supplementary Figure 8b): 5.775% and 6.631% and 5.788% and 5.583%
- Relative organ/body weight, Right kidney ([6]; Right kidney, individual animals, Supplementary Figure 8b): 0.662% and 0.6523% and 0.6788% and 0.6203%
- Relative organ/body weight, Spleen ([6]; Spleen, individual animals, Supplementary Figure 8b): 0.5915% and 0.4229% and 0.6217% and 0.4223%
- Relative organ/body weight, Thymus ([6]; Thymus, individual animals, Supplementary Figure 8b): 0.2641% and 0.1505% and 0.283% and 0.2317%
- Body weight ([6]; Time 1 d, individual animals): 24 g and 26 g and 25 g (2×)
- Body weight ([6]; Time 5 d, individual animals): 26 g (3×) and 27 g
- Body weight ([6]; Time 10 d, individual animals): 26 g (3×) and 27 g
- Body weight ([6]; Time 15 d, individual animals): 27 g (3×) and 30 g
- Body weight ([6]; Time 18 d, individual animals): 28.4 g and 27.9 g and 27.99 g and 26.76 g
- adverse effects, body weight, complete blood counts [6, 11]: no adverse effects, change in body weight, or change in complete blood counts
- necropsy histopathology [6, 11]: no histopathological abnormalities
- tolerability [6, 11]: well tolerated with no observed toxicity
- Hematology Analysis BA [6, 12]: 0.03 and 0.02 and 0.04 and 0.06
- Hematology Analysis EO [6, 12]: 0.24 and 0.11 and 0.2 and 0.16
- Hematology Analysis WBC [6, 12]: 7.06 and 10.06 and 5.16 (2×)
- Hematology Analysis LY [6, 13]: 4.99 and 6.24 and 3.4 and 3.44
- Hematology Analysis MO [6, 13]: 0.24 and 0.93 and 0.14 and 0.21
- Hematology Analysis NE [6, 13]: 1.57 and 2.76 and 1.38 and 1.3
- Hematology Analysis PLT [6, 13]: 721 and 1152 and 272 and 338
- Hematology Analysis RBC ([6]; individual animals, Supplementary Figure 8c, in 10^6/µL (unit assumed)): 8.48 and 9.05 and 9.08 and 9.55
- Hematology Analysis HCT [6, 14]: 49.5 and 47.2 and 51.7 and 49.4
- Hematology Analysis RDW [6, 14]: 16.8 and 16.2 and 17.4 and 15.3
- Hematology Analysis MCV [6, 15]: 58.4 and 52.2 and 56.9 and 51.7
- Hematology Analysis MPV [6, 15]: 5.2 and 4.6 and 5.8 and 5.6
- Hematology Analysis HB [6, 16]: 13.7 and 13.8 and 15 and 14.2
- Hematology Analysis MCHC [6, 16]: 27.7 and 29.2 and 29 and 28.7
- Hematology Analysis MCH ([6]; individual animals, Supplementary Figure 8c, in pg (unit assumed)): 16.2 and 15.2 and 16.5 and 14.9
